Results reported in ChEMBL document CHEMBL1129904, “3-chloro-4-carboxamido-6-arylpyridazines as a non-peptide class of interleukin-1 converting enzyme inhibitor” (Bioorg Med Chem Lett, 1997).

Tests used:
Caspase-1 = target: T1, Caspase-1 (Homo sapiens, UniProt P29466); assay: Antiinflammatory activity measured as the concentration required to inhibit IL-1 beta converting enzyme
T1 sequence (P29466 whole entry): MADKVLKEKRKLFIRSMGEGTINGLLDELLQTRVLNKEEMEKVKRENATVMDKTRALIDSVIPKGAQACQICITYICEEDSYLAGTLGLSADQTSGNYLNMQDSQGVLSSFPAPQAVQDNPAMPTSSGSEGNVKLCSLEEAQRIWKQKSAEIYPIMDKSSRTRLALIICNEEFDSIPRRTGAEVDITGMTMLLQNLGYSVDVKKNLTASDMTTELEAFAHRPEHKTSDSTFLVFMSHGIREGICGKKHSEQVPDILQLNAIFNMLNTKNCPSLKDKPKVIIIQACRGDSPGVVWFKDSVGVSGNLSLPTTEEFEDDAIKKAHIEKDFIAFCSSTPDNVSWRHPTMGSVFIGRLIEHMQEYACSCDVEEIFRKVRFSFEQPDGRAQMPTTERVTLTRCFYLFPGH

Caspase-1 (Homo sapiens) = target: T2, Caspase-1 (Homo sapiens) (UniProt P29466); assay: Inactivation of IL-1 beta converting enzyme
T2 sequence (whole entry): T1 sequence (P29466 whole entry)

Row | IC50 (Caspase-1) [µM] | k obs / 1 (Caspase-1 (Homo sapiens)) [M⁻¹ s⁻¹] | SMILES
1 | 5.5 | 45 | NC(=O)c1cc(-c2ccc(F)c(Cl)c2)nnc1Cl
2 | 1.5 |  | N#Cc1ccc(-c2cc(C(N)=O)c(Cl)nn2)cc1
3 | 13 | 10 | CCOC(=O)c1cc(-c2ccncc2)nnc1Cl
4 | 5 |  | NC(=O)c1cc(-c2ccc(Cl)cc2)nnc1Cl
5 | 0.7 |  | NC(=O)c1cc(-c2ccc([N+](=O)[O-])cc2)nnc1Cl
6 | 3 | 70 | NC(=O)c1cc(-c2ccncc2)nnc1Cl
7 | 4 | 50 | O=C(NCc1ccccc1)c1cc(-c2ccncc2)nnc1Cl
8 | 0.3 | 355 | CS(=O)(=O)c1c(F)cc(-c2cc(C(N)=O)c(Cl)nn2)cc1F
9 | 57 | < 5 | NC(=O)c1cc(-c2ccccc2)nnc1Cl
10 | 110 |  | N#Cc1cc(-c2ccncc2)nnc1Cl
11 | 66 | < 5 | COc1ccc(-c2cc(C(N)=O)c(Cl)nn2)cc1
12 | 2 |  | CCOC(=O)CNC(=O)c1cc(-c2ccncc2)nnc1Cl
13 | > 250 |  | NC(=O)c1cnnc(-c2ccncc2)c1
14 | 2 | 140 | O=C(NCc1ccc(Cl)cc1Cl)c1cc(-c2ccncc2)nnc1Cl
15 | 10 | 25 | CNC(=O)c1cc(-c2ccncc2)nnc1Cl
16 | > 250 |  | COc1nnc(-c2ccncc2)cc1C(N)=O
17 | > 250 |  | NC(=O)c1cc(-c2ccncc2)cnc1Cl
18 | > 250 |  | Cc1c(-c2ccc(Cl)cc2)nnc(Cl)c1C(N)=O
19 | 5 | 40 | NC(=O)c1cc(-c2ccc(C(F)(F)F)cc2)nnc1Cl
20 | > 250 |  | CSc1nnc(-c2ccncc2)cc1C(N)=O
21 | 18 |  | NC(=O)c1cc(-c2ccc(NS(=O)(=O)c3ccccc3)cc2)nnc1Cl
22 | 5 |  | NC(=O)c1cc(-c2ccc(Br)cc2)nnc1Cl
23 | > 250 |  | CNC(=O)c1cc(Cl)nnc1Cl
24 | > 250 |  | CN(C)C(=O)c1cc(-c2ccncc2)nnc1Cl

Row | SMILES | IC50 (Caspase-1) [µM] | k obs / 1 (Caspase-1 (Homo sapiens)) [M⁻¹ s⁻¹]
25 | N#Cc1ccc(-c2cc(C(N)=O)c(Cl)nn2)cc1Cl | 0.5 | 225
